Results on 5 molecules are retold here after article PMC3581310 (Bioorganic & medicinal chemistry, 2012).

Assay [1] deals with ER. As to conditions: triphenyl acrylonitriles; cited from earlier work.
Assay [2] has as its system human endometrial adenocarcinoma cells (Ishikawa). Nature of the assay: Estrogen bioassay: induction of AlkP in Ishikawa cells. It counts as cell-based.
Assay [3] relates to ER. Conditions: cited from earlier work.

Regarding `COc1ccc(C(=C(C#N)c2ccc(O)cc2)c2ccc(O)cc2)cc1`, the efficacy entry in the assay on ER [1] is “‘partial’ agonist responses”.
Regarding `COc1ccc([C@H]2C[C@]3(C)[C@@H](O)CC[C@H]3[C@@H]3CCc4cc(O)ccc4[C@H]32)cc1` [Compound 5, 11β-(4-Methoxyphenyl)estra-1,3,5(10)-trien-3,17β-diol], in assay [2] (maximal stimulation of AlkP in Ishikawa cells, printed in the RSA column), the Max stim entry is listed as “Max stim = 35–45%”.
As for `C[C@]12CC[C@@H]3c4ccc(O)cc4CC[C@H]3[C@@H]1CC[C@@H]2O` [Compound E2, estradiol], the EC50 in assay [2] (Homo sapiens, Ishikawa, read-out: EC50 of E2) was around 0.2 nM.
As to `CC/C(=C(\c1ccccc1)c1ccc(OCCN(C)C)cc1)c1ccccc1` [tamoxifen], the “affinity (RBA)” value in the assay on ER [3] is given as ~ 1%.
For `N#CC(=C(c1ccc(O)cc1)c1ccc(O)cc1)c1ccc(O)cc1` [α,α′,β-tris(4-hydroxyphenyl) compound], in the assay on ER [1], the efficacy result is recorded as “full agonist”.
